According to PubChem BioAssay AID179 (DTP/NCI, 2004):
Activity calls are given as the source filed them.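 The calls were made as follows: active = compounds giving half or more protection of infected cells from virus-caused growth loss, again on retest; inactive = the rest.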 Where a SMILES comes first, the peptide text is derived from it.

Test system: CEM cells HIV-1 protection, formazan growth assay
Assay: NCI AIDS Antiviral Assay
Conditions: for IC50: measured here: growth of uninfected CEM cells
Procedure, shortened: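 Category rules: moderately active means at least 50% protection on retest, and confirmed active means 100% protection reproducibly. The underlying data came from a formazan growth assay in HIV-1-infected CEM cells.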

Cc1cc2nc3c4ccccc4scc-3c2cc1C
EC50: > 200 µM | IC50: 0.324 µM

O=[N+]([O-])c1ccc(S(=O)(=O)c2ccc([N+](=O)[O-])cc2C(F)(F)F)c(C(F)(F)F)c1
outcome: inactive

N#CC(C#N)=Cc1cccc(F)c1
EC50: > 209 µM | IC50: 42.7 µM

CCOC(=O)/C=C1/C(CCCOCc2ccccc2)C2CCCC23CC2(CCN13)OCCO2 (centres undefined)
outcome: inactive

CC1(c2cccc(C3CC4(CCC3=O)OCCCCO4)c2)OCCO1 (centres undefined)
EC50: > 200 µM | IC50: > 200 µM

CCOC(=O)/C(C#N)=C/c1ccc(C#N)cc1
EC50: > 22.9 µM | IC50: > 22.9 µM

COP1(=O)NCc2ncccc2O1 (centres undefined)
EC50: > 200 µM | IC50: > 200 µM

Cc1cccc(C)c1NC(=S)NC=C(C(N)=O)C(N)=O
EC50: > 200 µM | IC50: > 200 µM

CN(c1ccccc1)S(=O)(=O)c1cccc([N+](=O)[O-])c1
EC50: 50.1 µM | IC50: 105 µM

COC(=O)C1=C(CS(=O)c2ccc([N+](=O)[O-])cc2[N+](=O)[O-])ON(C)C1c1ccccc1 (centres undefined)
outcome: inactive

CC(=O)c1c2c(cc3c1CC1(Cc4cc5c(cc4C1=O)CCC5)C3)CCC2 (centres undefined)
EC50: > 200 µM | IC50: 13.5 µM

O=C(c1ccco1)N(C(=S)N1CCN(c2ccccn2)CC1)C1CCCCC1
EC50: > 46.8 µM | IC50: 35.5 µM

COc1ccccc1NC(=O)/C(Cc1nc2ccc([N+](=O)[O-])cc2[nH]c1=O)=N\NC(=O)C[N+](C)(C)C
EC50: > 245 µM | IC50: 50.1 µM

O=C(OC[C@H]1OC(OC(=O)c2ccccc2)C(=O)C2(OC(=O)c3ccccc3)C3C=CC(C3)C12)c1ccccc1 (some centres undefined)
outcome: inactive

O=C(c1cc(O)c(O)c(O)c1)c1ccc(O)c(O)c1O
EC50: > 200 µM | IC50: 3.98 µM

CCC1CN2CCc3cc(OC)c(OC)cc3C2CC1CC1c2cc(OC)c(OC)cc2CCN1C(=O)C1CCCN1C(=O)OCc1ccccc1 (centres undefined)
outcome: inactive

CC1CC(C)(C)N=C(C(C)CC2CCCCC2)O1 (centres undefined)
EC50: > 200 µM | IC50: 21.9 µM

Cc1noc(/N=C2\C=C(Nc3onc(C)c3C)C(=O)c3ccccc32)c1C
EC50: > 2.75 µM | IC50: > 2.75 µM

Clc1ccc2c(c1)N(CCCN1CCCC13CCCCC3)c1ccccc1S2
EC50: > 200 µM | IC50: 102 µM

O=C1NC(N/N=C\C(O)C(O)C(O)CO)=N/C1=C/c1ccc(Cl)cc1 (centres undefined)
EC50: > 200 µM | outcome: inactive | IC50: 30.2 µM

NCCN.NCCN.O=C[O-].O=C[O-].[Co+3].[O-][Cl+3]([O-])([O-])[O-]
outcome: inactive

COc1ccc(N2C(=O)C3c4[nH]c5cccc(C)c5c4C4CCC(C(C)(C)C)CC4C3C2=O)cc1 (centres undefined)
EC50: > 200 µM | IC50: 89.1 µM

C/C=C(/C)C(=O)O[C@H]1[C@H](O)CC(c2ccc3c(c2O)C(O)=C2C(=O)C4(OC)C(O)=C(C(N)=O)C(=O)[C@H](CC(=O)c5ccccc5O)C4CC2[C@@]3(C)OC)O[C@@H]1C (some centres undefined)
EC50: > 2 µM | IC50: 0.000631 µM

CC1(C)CC(=O)C(/C(=N/NC(=S)NN)C(=O)Nc2nc3ccc([N+](=O)[O-])cc3s2)C(=O)C1
EC50: > 53.7 µM | IC50: > 53.7 µM

CCCCCCCCOCCS(=O)(=O)O
EC50: > 200 µM | IC50: > 200 µM

C=C(c1cc(C(=O)OC)c(OC)c(Br)c1C)c1cc(C(=O)OC)c(OC)c(Br)c1C
EC50: > 200 µM | IC50: 77.6 µM

CC(C)C1=CC2=C[C@H](O)[C@H]3C(C)(C)CCC[C@]3(C)C2=C(O)C1=O
EC50: > 20 µM | IC50: 1.62 µM

Cc1cn(C2C=CC(=O)C(C)O2)c(=O)[nH]c1=O (centres undefined)
EC50: > 1050 µM | IC50: 6.31 µM

CC(C)CC(NC(=O)C(CO)NC(=O)C(CCCCN)NC(=O)C(CCCCN)NC(=O)C(NC(=O)CNC(=O)C(NC(=O)C(CO)NC(=O)C(NC(=O)C(NC(=O)C(CO)NC(=O)C(CC(N)=O)NC(=O)C(N)CCC(N)=O)C(C)C)C(C)C)C(C)O)C(C)C)C(=O)NC(Cc1ccccc1)C(=O)NC(CCC(N)=O)C(=O)O (centres undefined) (H-QNSVVSTGVKKSLFQ-OH; configuration not given here)
outcome: inactive

Nc1ccc(C(=O)Nc2ccc(/C=C/c3ccc(NC(=O)c4ccc(N)cc4S(=O)(=O)O)cc3S(=O)(=O)O)c(S(=O)(=O)O)c2)c(S(=O)(=O)O)c1
EC50: 22.4 µM | IC50: 89.1 µM

O=C1C(Br)=C(Br)C(=O)c2ccc(=O)ccc21
EC50: > 55 µM | IC50: 9.77 µM

CC(=O)OCCCOCn1c(Cc2ccccc2)c(C(C)C)c(=O)[nH]c1=O
EC50: 0.0794 µM | IC50: 89.1 µM

NC(=O)CCNC(=O)c1ccccc1SC(=O)OCCBr
EC50: 6.31 µM | IC50: > 200 µM

C/C=C/C#CC#CC(O)C(/C=C/CCCO)OC1OC(COC2OC(CO)C(O)C(O)C2O)C(O)C(O)C1O (centres undefined)
EC50: > 447 µM | IC50: > 447 µM

CCCCn1/c(=N/C(=S)N(C)C)ss/c1=N\C(=S)N(C)C
outcome: inactive

C#C[C@@]1(O)CCCC2=CC3(CC[C@]21C)SCCS3
EC50: > 200 µM | IC50: 89.1 µM

O=c1[nH]c(=S)[nH]c2nc[nH]c12
EC50: > 200 µM | IC50: > 200 µM

Cc1c(C(=O)NCCO)[n+](=O)c2ccccc2n1[O-]
EC50: > 135 µM | IC50: > 135 µM

CCn1c(SCc2nnc(Nc3ccccc3)s2)nc2ccccc2c1=O
EC50: > 200 µM | IC50: 69.2 µM

O=C(O)C1CCC(c2ccc(Cl)cc2)N1 (centres undefined)
EC50: > 200 µM | IC50: > 200 µM

Cc1nc2sccn2c1C(=O)N/N=C1\SCC(=O)N1C
EC50: > 427 µM | IC50: > 427 µM

Cc1nccc2c(C(=O)O)c(C(=O)O)[nH]c12
EC50: > 170 µM | IC50: > 170 µM

C=C(CC/C=C\CO)[Si](C)(C)C
EC50: > 141 µM | IC50: > 141 µM
